Experimental data from patent US20230339890A1, “AMINO ALCOHOL COMPOUNDS AND USES THEREOF” (Kineta, Inc., priority 2020, published 2023).

target: Recombinant human CYP51A1 (lanosterol-14a-demethylase) (Homo sapiens (Human), UniProt Q16850); test: Inhibition of CYP51A1, fluorescent substrate BOMCC; type: biochemical; details: recombinant human CYP51A1 coexpressed with CYP reductase in bacterial membranes, 8-point concentration-response, read-out: CYP51 IC50
Excerpt: Method: Recombinant human CYP51A1 (lanosterol-14a-demethylase) enzyme was coexpressed with CYP reductase in bacterial membranes and the fluorescent substrate BOMCC (a nonnatural substrate that causes increases in fluorescence upon CYP51A1-dependent demethylation) was used to obtain 8-point dose concentration-response curves for each compound.

Recombinant human CYP51A1 (lanosterol-14a-demethylase), sequence (Q16850 whole entry): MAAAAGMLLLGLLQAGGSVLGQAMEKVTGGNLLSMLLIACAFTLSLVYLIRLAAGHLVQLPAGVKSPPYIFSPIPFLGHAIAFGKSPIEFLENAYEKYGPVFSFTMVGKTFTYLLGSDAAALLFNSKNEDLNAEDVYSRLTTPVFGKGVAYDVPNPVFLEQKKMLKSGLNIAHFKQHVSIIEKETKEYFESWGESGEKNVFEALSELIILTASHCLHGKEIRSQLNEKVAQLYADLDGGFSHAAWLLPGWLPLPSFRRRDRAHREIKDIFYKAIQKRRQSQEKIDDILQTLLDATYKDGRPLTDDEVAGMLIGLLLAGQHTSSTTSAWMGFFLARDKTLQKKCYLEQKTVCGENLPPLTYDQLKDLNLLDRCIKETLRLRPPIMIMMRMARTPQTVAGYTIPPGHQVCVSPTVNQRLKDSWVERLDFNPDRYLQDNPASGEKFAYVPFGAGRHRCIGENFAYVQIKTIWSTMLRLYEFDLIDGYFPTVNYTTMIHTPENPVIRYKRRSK

With `CCCN(C[C@@H](O)c1cccnc1)C(=O)Cc1ccc(OC)c(Cl)c1` [compound 12, 2-(3-chloro-4-methoxy-phenyl)-N-[(2S)-2-hydroxy-2-(3-pyridyl)ethyl]-N-propyl-acetamide] as the molecule, how does the IC50 read?
The IC50 was 100 to 1000 nM.

Which IC50 does the source give for `O=C(Cc1ccc(Cl)c(Cl)c1)N(C[C@@H](O)c1cccnc1)C1CCC1` [compound 71, N-cyclobutyl-2-(3,4-dichlorophenyl)-N-[(2S)-2-hydroxy-2-(3-pyridyl)ethyl]acetamide] here?
The IC50 was ≤ 100 nM.

For `CCCN(CC(O)c1cnccn1)C(=O)Cc1ccc(Cl)c(Cl)c1` (stereo not shown) [compound 96], which IC50 is on record?
The IC50 was 100 to 1000 nM.

Which IC50 does the source give for `CCCN(C[C@@H](O)c1cccnc1)C(=O)Cc1ccc(C)c(C)c1` [compound 99, 2-(3,4-dimethylphenyl)-N-[(2S)-2-hydroxy-2-(3-pyridyl)ethyl]-N-propyl-acetamide] here?
The IC50 was 100 to 1000 nM.

For `CCN(C[C@@H](O)c1cccnc1)C(=O)Cc1ccc(Cl)c(Cl)c1` [compound 20, 2-(3,4-dichlorophenyl) -N-ethyl-N-[(2S)-2-hydroxy-2-(3-pyridyl)ethyl]ac etamide], which IC50 is on record?
The IC50 was 100 to 1000 nM.

`CCCN(CC(O)c1cncc(F)c1)C(=O)Cc1ccc(Cl)c(Cl)c1` (stereo not shown) [compound 126, 2-(3,4-dichlorophenyl)-N-[2-(5-fluoro-3-pyridyl)-2-hydroxyethyl]-N-propyl-acetamide] was tested. Which IC50 did it give?
Its IC50 is 100 to 1000 nM.

`CC(C)(C)OC(=O)NC1CCC(CN(C[C@@H](O)c2cccnc2)C(=O)Cc2ccc(C(F)(F)F)nc2)CC1` (stereo partly drawn) [compound 146, tert-butyl N-[4-[[[(2S)-2-hydroxy-2-(3-pyridyl)ethyl]-[2-[6-(trifluoromethyl)-3-pyridyl]acetyl]amino]methyl]cyclohexyl] carbamate] was tested. Which IC50 did it give?
The IC50 was ≤ 100 nM.

How did the IC50 turn out when `O=C(Cc1ccc(C(F)(F)F)nc1)N(Cc1ccccc1)C[C@@H](O)c1cccnc1` [compound 64, (S)-N-benzyl-N-(2-hydroxy-2-(pyridin-3-yl)ethyl)-2-(6-(trifluoromethyl)pyridin-3-yl)acetamide] was run?
The IC50 was ≤ 100 nM.

How did the IC50 turn out when `CCC(=O)N(C[C@@H](O)c1cccnc1)C1Cc2cnc(C(F)(F)F)cc2C1` (stereo partly drawn) [compound 93, N-[(2S)-2-hydroxy-2-(3-pyridyl)ethyl]-N-[3-(trifluoromethyl)-6,7-dihydro-5H-cyclopenta[c]pyridin-6-yl]propanamide] was run?
Its IC50 is > 1000 nM.

With `CCCN(CC(O)c1cccnc1)C(=O)C(C)c1ccc(Cl)c(Cl)c1` (stereo not shown) [compound 117, 2-(3,4-dichlorophenyl)-N-[2-hydroxy-2-(3-pyridyl)ethyl]-N-propyl-propanamide] as the molecule, how does the IC50 read?
Its IC50 is > 1000 nM.

With `CCCN(C[C@@H](O)c1cccnc1)C(=O)Cc1ccc(OC(F)(F)F)c(Cl)c1` [compound 21, 2-[3-chloro-4-(trifluoromethoxy)phenyl]-N-[(2S)-2-hydroxy-2-(3-pyridyl)ethyl]-N-propyl-acetamide] as the molecule, how does the IC50 read?
The IC50 was ≤ 100 nM.

For `CC(C)(C)OC(=O)NCCCCCN(C[C@@H](O)c1cccnc1)C(=O)Cc1ccc(C(F)(F)F)nc1` [compound 141, tert-butyl N-[5-[[(2S)-2-hydroxy-2-(3-pyridyl)ethyl]-[2-[6-(trifluoromethyl)-3-pyridyl]acetyl]amino]pentyl]carbamate], which IC50 is on record?
The IC50 was ≤ 100 nM.

How did the IC50 turn out when `CCC(=O)N(C[C@H](O)c1cccnc1)C1Cc2cc(Cl)c(Cl)cc2C1` [compound 23, N-(5,6-dichloroindan-2-yl)-N-[(2R)-2-hydroxy-2-(3-pyridyl)ethyl]propanamide] was run?
The IC50 was ≤ 100 nM.

`CN1CCC(CN(C[C@@H](O)c2cccnc2)C(=O)Cc2ccc(C(F)(F)F)nc2)CC1` [compound 58, N-[(2S)-2-hydroxy-2-(3-pyridyl)ethyl]-N-[(1-methyl-4-piperidyl)methyl]-2-[6-(trifluoromethyl)-3-pyridyl]acetamide] was tested. Which IC50 did it give?
The IC50 was > 1000 nM.

Which IC50 does the source give for `CCCN(CC(O)c1cnccn1)C(=O)C1Cc2cc(Cl)c(Cl)cc2C1` (single isomer, unassigned) [compound 41, 5,6-dichloro-N-(2-hydroxy-2-pyrazin-2-yl-ethyl)-N-propyl-indane-2-carboxamide] here?
Its IC50 is > 1000 nM.

With `O=C(Cc1ccc(C(F)(F)F)nc1)N(CC1CCC1)CC(O)c1cccnn1` (stereo not shown) [compound 87] as the molecule, how does the IC50 read?
The IC50 was 100 to 1000 nM.

`CC(C)(O)CN(CC(O)c1cccnc1)C(=O)Cc1ccc(Cl)c(Cl)c1` (stereo not shown) [compound 43, 2-(3,4-dichlorophenyl)-N-(2-hydroxy-2-methylpropyl)-N-[2-hydroxy-2-(3-pyridyl)ethyl]acetamide] was tested. Which IC50 did it give?
The IC50 was > 1000 nM.

`CCC(=O)N(CC1Cc2cc(Cl)c(Cl)cc2C1)C[C@@H](O)c1cccnc1` [compound 34, N-[(5,6-dichloroindan-2-yl)methyl]-N-[(2S)-2-hydroxy-2-(3-pyridyl)ethyl]propanamide] was tested. Which IC50 did it give?
The IC50 was 100 to 1000 nM.

With `O=C(Cc1ccc(C(F)(F)F)nc1)N(C[C@@H](O)c1cccnc1)C1CCC1` [compound 74, N-cyclobutyl-N-[(2S)-2-hydroxy-2-(3-pyridyl)ethyl]-2-[6-(trifluoromethyl)-3-pyridyl]acetamide] as the molecule, how does the IC50 read?
Its IC50 is ≤ 100 nM.

With `CCCN(CC(O)c1ccc(=O)n(C)c1)C(=O)Cc1ccc(Cl)c(Cl)c1` (stereo not shown) [compound 121, 2-(3,4-dichlorophenyl)-N-[2-hydroxy-2-(1-methyl-6-oxo-3-pyridyl)ethyl]-N-propyl-acetamide] as the molecule, how does the IC50 read?
Its IC50 is > 1000 nM.

Which IC50 does the source give for `COC(=O)N(CCc1ccc(C(F)(F)F)nc1)C[C@@H](O)c1cccnc1` [compound 75, Methyl N-[(2S)-2-hydroxy-2-(3-pyridyl)ethyl]-N-[2-[6-(trifluoromethyl)-3-pyridyl]ethyl]carba mate] here?
The IC50 was > 1000 nM.

For `CC(C)N(C[C@@H](O)c1cccnc1)C(=O)Cc1ccc(Cl)c(Cl)c1` [compound 18, 2-(3,4-dichlorophenyl) -N-[(2S)-2-hydroxy-2-(3-pyridyl)ethyl]-N-isopropyl-acetamide], which IC50 is on record?
The IC50 was ≤ 100 nM.

How did the IC50 turn out when `CCCN(C[C@@H](O)c1cccnc1)C(=O)Cc1ccnc(C(F)(F)F)c1` [compound 127, N-[(2S)-2-hydroxy-2-(3-pyridyl)ethyl]-N-propyl-2-[2-(trifluoromethyl)-4-pyridyl]acetamide] was run?
Its IC50 is > 1000 nM.

`CCCN(CC(O)c1cccnc1)C(=O)Cc1ccc(F)c(F)c1` (stereo not shown) [compound 95, 2-(3,4-difluorophenyl)-N-(2-hydroxy-2-(pyridin-3-yl)ethyl)-N-propylacetamide] was tested. Which IC50 did it give?
Its IC50 is 100 to 1000 nM.

Which IC50 does the source give for `N#Cc1ccc(CC(=O)N(C[C@@H](O)c2cccnc2)C2CCC2)cc1Cl` [compound 77, 2-(3-chloro-4-cyano-phenyl)-N-cyclobutyl-N-[(2S)-2-hydroxy-2-(3-pyridyl)ethyl]acetamide] here?
Its IC50 is ≤ 100 nM.

How did the IC50 turn out when `CCCN(CC(O)c1cnccc1N)C(=O)Cc1ccc(C(F)(F)F)nc1` (stereo not shown) [compound 136, N-[2-(4-amino-3-pyridyl)-2-hydroxyethyl]-N-propyl-2-[6-(trifluoromethyl)-3-pyridyl]acetamide] was run?
The IC50 was ≤ 100 nM.

With `CCCN(C[C@@H](O)c1cccnc1)C(=O)Cc1ccc2ncsc2c1` [compound 40, 2-(1,3-benzothiazol-6-yl)-N-[(2S)-2-hydroxy-2-(3-pyridyl)ethyl]-N-propyl-acetamide] as the molecule, how does the IC50 read?
The IC50 was 100 to 1000 nM.

Which IC50 does the source give for `CCCN(C[C@@H](O)c1cccnc1)C(=O)Cc1ccc(Cl)c(Cl)c1` [compound 8, 2-(3,4-dichlorophenyl)-N-[(2S)-2-hydroxy-2-(3-pyridyl)ethyl]-N-propyl-acetamide] here?
Its IC50 is ≤ 100 nM.

How did the IC50 turn out when `CCCN(CC(O)c1cccnn1)C(=O)Cc1ccc(C(F)(F)F)nc1` (single isomer, unassigned) [compound 68, N-[2-hydroxy-2-pyridazin-3-yl-ethyl]-N-propyl-2-[6-(trifluoromethyl)-3-pyridyl]acetamide] was run?
Its IC50 is > 1000 nM.

`CCC(=O)N(CCc1ccc(Cl)c(Cl)c1)CC(O)c1cccnc1` (stereo not shown) [compound 4] was tested. Which IC50 did it give?
Its IC50 is 100 to 1000 nM.

How did the IC50 turn out when `CCCN(CC(O)c1cncc(Br)c1)C(=O)Cc1ccc(C(F)(F)F)nc1` (stereo not shown) [compound 46, N-[2-(5-bromo-3-pyridyl)-2-hydroxyethyl]-N-propyl-2-[6-(trifluoromethyl)-3-pyridyl]acetamide] was run?
The IC50 was > 1000 nM.

With `CC(C)c1ccncc1C(O)CN(CC1COC1)C(=O)Cc1ccc(C(F)(F)F)nc1` (stereo not shown) [compound 90, N-[2-hydroxy-2-(4-isopropyl-3-pyridyl)ethyl]-N-(oxetan-3-ylmethyl)-2-[6-(trifluoromethyl)-3-pyridyl]acetamide] as the molecule, how does the IC50 read?
The IC50 was ≤ 100 nM.

For `CCCN(C[C@@H](O)c1cccnc1)C(=O)N1Cc2cc(Cl)c(Br)cc2C1` [compound 135, 5-bromo-6-chloro-N-[(2S)-2-hydroxy-2-(3-pyridyl)ethyl]-N-propyl-isoindoline-2-carboxamide], which IC50 is on record?
Its IC50 is ≤ 100 nM.

How did the IC50 turn out when `CCCN(C[C@@H](O)c1cccnc1)C(=O)C1CCc2cc(Cl)c(Cl)cc2C1` (stereo partly drawn) [compound 98, 6,7-dichloro-N-[(2S)-2-hydroxy-2-(3-pyridyl)ethyl]-N-propyl-tetralin-2-carboxamide] was run?
The IC50 was ≤ 100 nM.

For `CCCN(C[C@@H](O)c1cccnc1)C(=O)Cc1ccc(C#N)c(Cl)c1` [compound 100, 2-(3-chloro-4-cyano-phenyl)-N-[(2S)-2-hydroxy-2-(3-pyridyl)ethyl]-N-propyl-acetamide], which IC50 is on record?
Its IC50 is ≤ 100 nM.

Which IC50 does the source give for `COC(=O)N(CCc1ccc2ccccc2c1)CC(O)c1cccnc1` (stereo not shown) [compound 82, Methyl N-[2-hydroxy-2-(3-pyridyl)ethyl]-N-[2-(2-naphthyl)ethyl]carba mate] here?
The IC50 was 100 to 1000 nM.

`CCCN(CC(O)c1cccnc1)C(=O)Cc1ccc(OC)c(OC)c1` (stereo not shown) [compound 5, 2-(3,4-dimethoxyphenyl)-N-[2-hydroxy-2-(3-pyridyl)ethyl]-N-propyl-acetamide] was tested. Which IC50 did it give?
The IC50 was > 1000 nM.

How did the IC50 turn out when `CC(C)N(C[C@@H](O)c1cccnc1)C(=O)Cc1ccc(C(F)(F)F)nc1` [compound 72, (S)-N-(2-hydroxy-2-(pyridin-3-yl)ethyl)-N-isopropyl-2-(6-(trifluoromethyl)pyridin-3-yl)acetamide] was run?
The IC50 was 100 to 1000 nM.

For `CCCN(C[C@@H](O)c1cccnc1)C(=O)C1Cc2cnc(C(F)(F)F)cc2C1` (stereo partly drawn) [compound 128, N-[(2S)-2-hydroxy-2-(3-pyridyl)ethyl]-N-propyl-3-(trifluoromethyl)-6,7-dihydro-5H-cyclopenta[c]pyridine-6-carboxamide], which IC50 is on record?
The IC50 was ≤ 100 nM.

With `CCCN(C[C@@H](O)c1cccnc1)C(=O)Cc1ccc2cc(Cl)sc2c1` [compound 67, 2-(2-chlorobenzothiophen-6-yl)-N-[(2S)-2-hydroxy-2-(3-pyridyl)ethyl]-N-propyl-acetamide] as the molecule, how does the IC50 read?
The IC50 was ≤ 100 nM.
